Measured values as given in paper PMC7317746 (Environmental and Molecular Mutagenesis, 2020).
Like-named read-outs stand apart in the source and are kept apart here. Marks after values point to notes of the source that are not given here.

Legend:
male Sprague Dawley rats [1] = experiment: Pig‐a assay; type: in vivo, rat
male Sprague Dawley rats [2] = experiment: Micronucleus assay in peripheral blood erythrocytes; type: in vivo, rat
peripheral blood cells = experiment: Comet assay, peripheral blood cells; type: in vivo, rat
liver cells = experiment: Comet assay, liver cells; type: in vivo, rat
male Sprague Dawley rats [3] = conditions: 1-Month Study, 1,000 mg/kg/day
[4] = system: bacteria, in vitro mammalian cell and in vivo transgenic rat assays; conditions: ref IARC, 1990, Bergman et al., 1996; cited from earlier work
[5] = 3-Day Study, 1,000 mg/kg/day Days 1-3, Day 30
[6] = 3-Day Study, 1,000 mg/kg/day Days 1-3, Day 45
[7] = 3-Day Study, 1,000 mg/kg/day, Day -4 (pre-treatment)
[8] = 3-Day Study, 2,000 mg/kg/day Days 1-3, Day 15
[9] = 3-Day Study, 2,000 mg/kg/day Days 1-3, Day 30
[10] = 3-Day Study, 2,000 mg/kg/day Days 1-3, Day 45
[11] = 3-Day Study, 2,000 mg/kg/day, Day -4 (pre-treatment)
[12] = 1-Month Study, 250 mg/kg/day, Day 4
[13] = 1-Month Study, 250 mg/kg/day, Day 29
[14] = 1-Month Study, 500 mg/kg/day, Day 4
[15] = 1-Month Study, 500 mg/kg/day, Day 29
[16] = 1-Month Study, 1,000 mg/kg/day, Day 29
[17] = 3-Day Study, 500 mg/kg/day, Day 4
[18] = ≤1,000 mg/kg/day, up to 29 days
[19] = 3-Day Study, 500 mg/kg/day, Day 3
[20] = 3-Day Study, 1,000 mg/kg/day, Day 3
[21] = 3-Day Study, 2,000 mg/kg/day, Day 3

SMILES: CC(=O)Nc1ccc(O)cc1 [acetaminophen, Acetaminophen]
- Number of CD59‐Neg RBCs per 10^6 RBCs mean ± SD (male Sprague Dawley rats [1]; [5]): 0.8 ± 0.4 per 10^6 RBCs
- Number of CD59‐Neg RETs per 10^6 RETs mean ± SD (male Sprague Dawley rats [1]; [5]): 1.5 ± 1.8 per 10^6 RETs
- %RETs mean ± SD (male Sprague Dawley rats [1]; [6]): 2.9 ± 0.3%
- Number of CD59‐Neg RBCs per 10^6 RBCs mean ± SD (male Sprague Dawley rats [1]; [6]): 1.1 ± 1.1 per 10^6 RBCs
- Number of CD59‐Neg RETs per 10^6 RETs mean ± SD (male Sprague Dawley rats [1]; [6]): 2.0 ± 2.1 per 10^6 RETs
- %RETs mean ± SD (male Sprague Dawley rats [1]; [7]): 3.6 ± 0.8%
- Number of CD59‐Neg RBCs per 10^6 RBCs mean ± SD (male Sprague Dawley rats [1]; [7]): 0.4 ± 0.2 per 10^6 RBCs
- Number of CD59‐Neg RETs per 10^6 RETs mean ± SD (male Sprague Dawley rats [1]; [7]): 1.2 ± 0.5 per 10^6 RETs
- %RETs mean ± SD (male Sprague Dawley rats [1]; [8]): 5.7 ± 0.4 %
- Number of CD59‐Neg RBCs per 10^6 RBCs mean ± SD (male Sprague Dawley rats [1]; [8]): 2.9 ± 6.1 per 10^6 RBCs
- Number of CD59‐Neg RETs per 10^6 RETs mean ± SD (male Sprague Dawley rats [1]; [8]): 11.3 ± 26.2 per 10^6 RETs
- %RETs mean ± SD (male Sprague Dawley rats [1]; [9]): 3.3 ± 0.6%
- Number of CD59‐Neg RBCs per 10^6 RBCs mean ± SD (male Sprague Dawley rats [1]; [9]): 32.4 ± 78.4 per 10^6 RBCs
- Number of CD59‐Neg RETs per 10^6 RETs mean ± SD (male Sprague Dawley rats [1]; [9]): 40.3 ± 98.3 per 10^6 RETs
- %RETs mean ± SD (male Sprague Dawley rats [1]; [10]): 2.4 ± 0.2 %
- Number of CD59‐Neg RBCs per 10^6 RBCs mean ± SD (male Sprague Dawley rats [1]; [10]): 38.5 ± 92.8 per 10^6 RBCs
- Number of CD59‐Neg RETs per 10^6 RETs mean ± SD (male Sprague Dawley rats [1]; [10]): 15.1 ± 36.2 per 10^6 RETs
- %RETs mean ± SD (male Sprague Dawley rats [1]; [11]): 3.2 ± 0.8%
- Number of CD59‐Neg RBCs per 10^6 RBCs mean ± SD (male Sprague Dawley rats [1]; [11]): 0.3 ± 0.1 per 10^6 RBCs
- Number of CD59‐Neg RETs per 10^6 RETs mean ± SD (male Sprague Dawley rats [1]; [11]): 1.2 ± 0.6 per 10^6 RETs
- Mutagenicity in the rat Pig‐a model (conclusion) (male Sprague Dawley rats [1]; 250-2,000 mg/kg/day, 3-Day, 2-Week and 1-Month Studies): not mutagenic
- %MN‐RETs mean ± SD (male Sprague Dawley rats [2]; [12]): 0.14 ± 0.03%
- %RETs mean ± SD (male Sprague Dawley rats [2]; [12]): 2.89 ± 1.89%
- %MN‐RETs mean ± SD (male Sprague Dawley rats [2]; [13]): 0.15 ± 0.05%
- %RETs mean ± SD (male Sprague Dawley rats [2]; [13]): 1.32 ± 0.25%
- %MN‐RETs mean ± SD (male Sprague Dawley rats [2]; [14]): 0.18 ± 0.07%
- %RETs mean ± SD (male Sprague Dawley rats [2]; [14]): 1.80 ± 1.98%
- %MN‐RETs mean ± SD (male Sprague Dawley rats [2]; [15]): 0.22 ± 0.04^ %
- %RETs mean ± SD (male Sprague Dawley rats [2]; [15]): 1.03 ± 0.28%
- %RETs mean ± SD (male Sprague Dawley rats [2]; 1-Month Study, 1,000 mg/kg/day, Day 4): 0.03 ± 0.02 %
- %MN‐RETs mean ± SD (male Sprague Dawley rats [2]; [16]): 0.59 ± 0.23^ %
- %RETs mean ± SD (male Sprague Dawley rats [2]; [16]): 1.48 ± 1.05%
- %MN‐RETs mean ± SD (male Sprague Dawley rats [2]; [17]): 0.12 ± 0.05%
- %RETs mean ± SD (male Sprague Dawley rats [2]; [17]): 0.89 ± 0.68%
- %RETs mean ± SD (male Sprague Dawley rats [2]; 3-Day Study, 1,000 mg/kg/day, Day 4): 0.08 ± 0.08 %
- %MN‐RETs mean ± SD (male Sprague Dawley rats [2]; 3-Day Study, 1,000 mg/kg/day, Day 4, only 1 animal analyzed): 0.21 ^a %
- %RETs mean ± SD (male Sprague Dawley rats [2]; 3-Day Study, 2,000 mg/kg/day, Day 4): 0.03 ± 0.04 %
- Micronucleus endpoint in peripheral blood RETs (conclusion) (male Sprague Dawley rats [2]; [18]): negative
- Blood % tail intensity mean ± SD (peripheral blood cells; [13]): 0.13 ± 0.08%
- Blood % tail intensity mean ± SD (peripheral blood cells; [15]): 0.19 ± 0.10%
- Blood % tail intensity mean ± SD (peripheral blood cells; [16]): 0.24 ± 0.15%
- Blood % tail intensity mean ± SD (peripheral blood cells; [19]): 0.31 ± 0.11%
- Blood % tail intensity mean ± SD (peripheral blood cells; [20]): 0.41 ± 0.12 %
- Blood % tail intensity mean ± SD (peripheral blood cells; [21]): 0.34 ± 0.07%
- Increase in % tail intensity in peripheral blood cells versus vehicle (peripheral blood cells; 3-Day Study, at 1,000 mg/kg/day, not considered biologically relevant): up to 1.6 fold
- Liver % tail intensity mean ± SD (liver cells; [13]): 0.20 ± 0.11%
- Liver % tail intensity mean ± SD (liver cells; [15]): 0.18 ± 0.06%
- Liver % tail intensity mean ± SD (liver cells; [16]): 0.34 ± 0.25 %
- Liver % tail intensity mean ± SD (liver cells; [19]): 0.22 ± 0.09%
- Liver % tail intensity mean ± SD (liver cells; [20]): 0.27 ± 0.10%
- Liver % tail intensity mean ± SD (liver cells; [21]): 0.28 ± 0.07 %
- Comet endpoint in peripheral blood cells and liver cells (conclusion) (liver cells; [18]): negative
- Rats with minimal remnants of treatment‐related liver changes (male Sprague Dawley rats [3]; after 1-month recovery period): 2/6
- Rats with minimal to slight liver changes in the centrilobular region (male Sprague Dawley rats [3]; after 1 month): 9/16
- Rats with minimal to slight liver changes in the centrilobular region (male Sprague Dawley rats [3]; after 1 week): 5/5
- Mutagenicity [4]: nonmutagenic
